In article PMC9007462 (Journal of Medicinal Chemistry, 2022):

Assays:
PC3 = experiment: MTT chemosensitivity assay, PC3; type: cell-based, human; details: ± SD, at least three independent experiments
Procedure: (§1) MTT (3-(4, 5-dimethyl-2-thiazolyl)-2, 5-diphenyl-2H-tetrazolium bromide) assay was used to determine cell viability.[64] Immortalized PCa cells (PC-3, Du-145, and LNCaP) were seeded in 96-well plates and allowed to adhere overnight at 37 °C, 5% CO2, and 100% humidity. […] After 96 h of exposure, 200 μL of MTT (Sigma) solution (0.5 mg/mL) was added to each well and incubated at 37 °C for 4 h. The formazan crystals were dissolved in DMSO (Sigma), and the absorbance was read using a microplate reader (Multiskan EX; Thermo Fisher Scientific) at 540 nm. Data analysis was performed using Microsoft Excel 2013 and GraphPad Prism software.

DU145 = experiment: MTT chemosensitivity assay, DU145; type: cell-based, human; details: ± SD, at least three independent experiments
Procedure: as §1

LNCaP = experiment: MTT chemosensitivity assay, LNCaP; type: cell-based, human; details: 96 h exposure, ± SD, at least three independent experiments
Procedure: as §1

Human ALDH1A3 = biological target: T1, Human ALDH1A3 (Homo sapiens, UniProt P47895); experiment: ALDH1A3 inhibition, IC50, Ki and type of inhibition; type: biochemical; details: for IC50: 6 μM hexanal as substrate; for IC50 / Ki: mean ± SE; for type of inhibition ALDH1A3 / Ki: hexanal as substrate; for Ki: fit to competitive inhibition equation
T1 construct: made in house
T1 sequence (P47895 1-512): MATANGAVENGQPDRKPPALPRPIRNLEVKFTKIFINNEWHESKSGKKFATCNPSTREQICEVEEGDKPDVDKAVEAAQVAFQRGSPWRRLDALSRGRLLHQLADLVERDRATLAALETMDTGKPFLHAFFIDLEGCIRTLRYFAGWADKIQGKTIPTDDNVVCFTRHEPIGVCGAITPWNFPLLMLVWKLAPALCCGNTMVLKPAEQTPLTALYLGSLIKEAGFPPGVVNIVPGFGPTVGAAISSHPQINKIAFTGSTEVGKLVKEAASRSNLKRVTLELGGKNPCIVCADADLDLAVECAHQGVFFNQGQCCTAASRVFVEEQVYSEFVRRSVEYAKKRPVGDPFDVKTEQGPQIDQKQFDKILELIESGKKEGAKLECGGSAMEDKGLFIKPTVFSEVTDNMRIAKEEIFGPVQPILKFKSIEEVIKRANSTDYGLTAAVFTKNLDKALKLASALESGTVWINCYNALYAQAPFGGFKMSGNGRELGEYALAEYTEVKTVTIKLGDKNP
Procedure: Human ALDH1A1, ALDH1A3, and ALDH3A1 were cloned and recombinantly expressed from the pET-30 Xa/LIC vector. Protein purification was achieved by affinity chromatography on a nickel-charged chelating Sepharose Fast Flow 5-mL column (His Trap column, Cytiva), which specifically binds the protein due to its N-terminal (His)6 tag, using an ÄKTA FPLC system (Cytiva), as previously described.[55] Enzymes including the His tag were stored at −80 °C in 20 mM Tris/HCl and 0.5 M NaCl, pH 8.0, until use. Reaction buffers were as follows: ALDH1A1 was assayed in 50 mM HEPES, 0.5 mM EDTA, and 0.5 mM DTT, pH 8.0; […] Activity under standard conditions was measured fluorimetrically at 25 °C using a Cary Eclipse (Varian) fluorimeter to follow the purification procedure and to check the enzyme concentration before each kinetic experiment. […] In order to determine the IC50 values, reaction rates were determined at various concentrations of inhibitor at a fixed concentration of substrate. […] Values are expressed as the mean ± SE. […] The data of enzymatic activities at different inhibitor concentrations were fitted to the Michaelis–Menten equation to determine the values of Km and Vmax. Next, results were fitted to the equations for competitive, given by [drawing 3]; noncompetitive, given by [drawing 4]; uncompetitive, given by [drawing 5]; and mixed, given by [drawing 6] .[56] The type of inhibition was selected based on the lowest error value. Parameters were expressed as the mean ± SE.

Human ALDH3A1 [1] = biological target: T2, Human ALDH3A1 (Homo sapiens, UniProt P30838); experiment: DEAB analogues as substrates of ALDH3A1 (substrate activity and kinetics); type: biochemical
T2 construct: made in house
T2 sequence (P30838 1-453): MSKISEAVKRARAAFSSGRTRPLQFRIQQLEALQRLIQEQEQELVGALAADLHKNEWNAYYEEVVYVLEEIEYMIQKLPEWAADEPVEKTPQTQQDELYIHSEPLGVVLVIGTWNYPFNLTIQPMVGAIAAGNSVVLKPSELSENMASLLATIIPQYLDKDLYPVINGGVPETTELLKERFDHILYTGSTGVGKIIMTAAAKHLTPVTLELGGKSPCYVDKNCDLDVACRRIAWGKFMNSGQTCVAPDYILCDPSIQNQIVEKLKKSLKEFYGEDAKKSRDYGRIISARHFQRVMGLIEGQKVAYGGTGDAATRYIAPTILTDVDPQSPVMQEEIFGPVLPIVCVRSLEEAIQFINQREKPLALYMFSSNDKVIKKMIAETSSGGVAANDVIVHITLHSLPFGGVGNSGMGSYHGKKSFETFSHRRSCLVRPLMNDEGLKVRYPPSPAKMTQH
Procedure: (§2) Human ALDH1A1, ALDH1A3, and ALDH3A1 were cloned and recombinantly expressed from the pET-30 Xa/LIC vector. Protein purification was achieved by affinity chromatography on a nickel-charged chelating Sepharose Fast Flow 5-mL column (His Trap column, Cytiva), which specifically binds the protein due to its N-terminal (His)6 tag, using an ÄKTA FPLC system (Cytiva), as previously described.[55] Enzymes including the His tag were stored at −80 °C in 20 mM Tris/HCl and 0.5 M NaCl, pH 8.0, until use. Reaction buffers were as follows: ALDH1A1 was assayed in 50 mM HEPES, 0.5 mM EDTA, and 0.5 mM DTT, pH 8.0; ALDH1A3 was assayed in 50 mM HEPES, 30 mM MgCl2, and 5 mM DTT, pH 8.0; and ALDH3A1 was assayed in 50 mM Tris–HCl and 5 mM DTT, pH 8.0. Activity under standard conditions was measured fluorimetrically at 25 °C using a Cary Eclipse (Varian) fluorimeter to follow the purification procedure and to check the enzyme concentration before each kinetic experiment. The fluorescence of NADH was characterized at 460 nm with excitation at 340 nm, and 5 μM NAD(P)H was added as an internal standard to obtain the absolute reaction rates.[55] Standard activity was measured at saturating concentrations of substrate using 30 μM hexanal (ALDH1A1), 250 μM hexanal (ALDH1A3), or 250 μM 4-NBA (ALDH3A1). NAD^+ was 500 μM for ALDH1A1 and ALDH1A3, and NADP^+ was 1 mM for ALDH3A1.
According to their structure with a carbonyl group, compounds were tested for their substrate properties against ALDH1A1, ALDH1A3, and ALDH3A1. […] Results are expressed as the percentage of activity at 10 μM versus the activity at 10 μM of their standard substrate (hexanal or 4-NBA). Values are expressed as the mean ± SE.
To calculate the Km value of compound 18 as a substrate for ALDH3A1, several concentrations of compound 18 were used. Experimental values were fitted to the adaptation of the Michaelis–Menten equation for substrate inhibition [drawing 1] and shown as the mean ± SE.

Human ALDH3A1 [2] = biological target: T2, Human ALDH3A1; experiment: ALDH3A1 inhibition, IC50, Ki and type of inhibition; type: biochemical; details: 31 μM 4-NBA as substrate; mean ± SE
Procedure: as §2
In order to determine the IC50 values, reaction rates were determined at various concentrations of inhibitor at a fixed concentration of substrate. As substrates for ALDH1A1, ALDH1A3, and ALDH3A1, 5 μM hexanal, 6 μM hexanal, and 31 μM 4-NBA, respectively, were used. The IC50 values were calculated by nonlinear fitting of the obtained data to a sigmoidal plot using GraFit 5.0 (Erithacus software), with the following 4-parameter equation [drawing 2] , where y is the specific activity, x is the inhibitor concentration, background is the minimum y value, range is the fitted uninhibited value minus the background, and s is the slope factor. Values are expressed as the mean ± SE.
Activity assays to determine the type of inhibition and Ki value were performed using various substrate and inhibitor concentrations maintaining the same conditions as for the IC50 experiments and using GraFit 5.0 for data processing. The data of enzymatic activities at different inhibitor concentrations were fitted to the Michaelis–Menten equation to determine the values of Km and Vmax. Next, results were fitted to the equations for competitive, given by [drawing 3]; noncompetitive, given by [drawing 4]; uncompetitive, given by [drawing 5]; and mixed, given by [drawing 6] .[56] The type of inhibition was selected based on the lowest error value. Parameters were expressed as the mean ± SE.

Human ALDH1A1 = biological target: T3, Human ALDH1A1 (Homo sapiens, UniProt P00352); experiment: Inhibition screening, single point at 10 μM, ALDH1A1; type: biochemical; details: 10 μM compound; 5 μM hexanal (Figure S1)
T3 construct: made in house
T3 sequence (P00352 1-501): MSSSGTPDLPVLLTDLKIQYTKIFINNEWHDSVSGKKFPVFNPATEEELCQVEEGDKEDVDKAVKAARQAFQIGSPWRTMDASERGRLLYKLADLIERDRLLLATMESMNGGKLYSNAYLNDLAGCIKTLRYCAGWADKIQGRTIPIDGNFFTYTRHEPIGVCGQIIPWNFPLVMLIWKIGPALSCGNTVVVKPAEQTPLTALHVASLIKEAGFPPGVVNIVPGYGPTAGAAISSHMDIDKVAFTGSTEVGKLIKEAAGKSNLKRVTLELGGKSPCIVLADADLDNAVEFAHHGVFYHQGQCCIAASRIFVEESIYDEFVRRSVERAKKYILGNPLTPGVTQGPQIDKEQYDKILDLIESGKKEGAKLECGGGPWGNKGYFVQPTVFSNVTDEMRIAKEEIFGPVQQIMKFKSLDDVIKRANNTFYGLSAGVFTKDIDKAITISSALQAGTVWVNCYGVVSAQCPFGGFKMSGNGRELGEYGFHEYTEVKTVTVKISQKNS
Procedure: as §2
All compounds tested were dissolved in DMSO and assayed at a final concentration of 1% (v/v) DMSO. […] For the initial screening, the enzymatic activity was measured in 96-well plates (final volume of 200 μL) in a Victor 3 Multilabel Plate Reader (Perkin Elmer), by monitoring the fluorescence of the NAD(P)H produced during the reaction (excitation at 340 nm and emission at 460 nm). Alternatively, the enzymatic activity was measured in a Varian Cary 400 UV–vis spectrophotometer, by monitoring the increase in the absorbance of NAD(P)H at 340 nm (ε = 6.22 mM^–1·cm^–1) or in a Cary Eclipse Varian fluorimeter, as described above. […] For ALDH1A1, 5 μM hexanal (Sigma) was used. For ALDH1A3, 10 and 250 μM hexanal (Sigma) were used. For ALDH3A1, 4-NBA (Sigma) was used at 31 and 250 μM. All substrates were prepared in the corresponding assay buffer at a concentration of 2 mM and further diluted to reach the final concentrations required per experiment. The concentration of the enzyme was kept from 50- to 100-fold lower than that of the substrate for all enzymatic assays.

[3] = Homo sapiens, PC-3, 96 h exposure
[4] = Homo sapiens, DU-145, 96 h exposure

Compound | IC50 (PC3; [3]) | IC50 (Human ALDH1A3) | IC50 (DU145; [4]) | IC50 (LNCaP; Homo sapiens, LNCaP) | also measured
4-(Dipropylamino)-3-methoxybenzaldehyde [Compound 17] | – | – | – | – | IC50 (PC3; 96 h exposure): 106 ± 25 µM; IC50 (DU145; 96 h exposure): 103 ± 4 µM; IC50 (LNCaP): 61 ± 18 µM
4-(Dipropylamino)-2-methoxybenzaldehyde [Compound 38] | – | – | – | – | IC50 (PC3; 96 h exposure): 75 ± 10 µM; IC50 (DU145; 96 h exposure): 71 ± 11 µM; IC50 (LNCaP): 50 ± 3 µM
O=Cc1ccc([N+](=O)[O-])cc1 [Compound 4-NBA, 4-Nitrobenzaldehyde, reference compound] | – | – | – | – | Km (Human ALDH3A1 [1]; mean ± SE): 31 ± 4.9 µM; kcat as ALDH3A1 substrate (Human ALDH3A1 [1]; mean ± SE): 359 ± 14 min^–1; Km fold higher than compound 18 (ALDH3A1 substrate) (Human ALDH3A1 [1]; ratio of Km values): 10 fold; turnover number (kcat) fold higher than compound 18 (ALDH3A1) (Human ALDH3A1 [1]; ratio of kcat values): 26 fold
O=Cc1ccc(-n2ccnc2)cc1 [Compound 6, 4-(1H-Imidazole-1-yl)benzaldehyde] | 172 ± 30 µM | – | 133 ± 11 µM | 137 ± 14 µM | –
CN1CCN(c2ccc(C=O)cc2Br)CC1 [Compound 21, 3-Bromo-4-(4-methylpiperazin-1-yl)benzaldehyde] | > 200 µM | – | 187 ± 14 µM | 179 ± 14 µM | –
O=Cc1ccc(N2CCCC2)cc1 [Compound 4, 4-(Pyrrolidin-1-yl)benzaldehyde] | – | – | – | – | remaining ALDH1A1 activity (Human ALDH1A1): 10%
O=Cc1ccc(N2CCCCC2)c(Cl)c1 [Compound 8, 3-Chloro-4-(piperidin-1-yl)benzaldehyde] | 130 ± 9 µM | – | 110 ± 3 µM | 37 ± 1.4 µM | –

More lines, main results first:

IC50 (PC3; [3]) | IC50 (Human ALDH1A3) | IC50 (DU145; [4]) | IC50 (LNCaP; Homo sapiens, LNCaP) | Compound | also measured
> 200 µM | 0.26 ± 0.01 µM | > 200 µM | > 200 µM | CC(C)Oc1ccc(C=O)cc1 [Compound 16, 4-Isopropoxybenzaldehyde] | type of inhibition ALDH1A3 (Human ALDH1A3): competitive; Ki (Human ALDH1A3): < 1 µM; ALDH3A1 substrate activity (Human ALDH3A1 [1]; 10 μM compound as substrate, relative to activity with 10 μM 4-NBA (Figure S2)): good ALDH3A1 substrate
84 ± 6 µM | – | 84 ± 12 µM | 46 ± 10 µM | O=Cc1ccc(N2CCCCC2)c(Br)c1 [Compound 23, 3-Bromo-4-(piperidin-1-yl)benzaldehyde] | –
– | 0.27 ± 0.03 µM | – | – | O=Cc1ccc(N2CCCC2)c([N+](=O)[O-])c1 [Compound 34, 3-Nitro-4-(pyrrolidin-1-yl)benzaldehyde] | –
123 ± 29 µM | 0.3 ± 0.07 µM | 106 ± 13 µM | 61 ± 14 µM | Cc1cc(C=O)ccc1N1CCCCC1 [Compound 15, 3-Methyl-4-(piperidin-1-yl)benzaldehyde] | type of inhibition ALDH1A3 (Human ALDH1A3): competitive; Ki (Human ALDH1A3): < 1 µM
196 ± 4 µM | – | 155 ± 32 µM | 82 ± 10 µM | O=Cc1ccc(N2CCOCC2)c(Br)c1 [Compound 22, 3-Bromo-4-morpholinobenzaldehyde] | –
– | 2.37 ± 0.19 µM | – | – | O=Cc1ccc(N2CCOCC2)c(Cl)c1 [Compound 9, 3-Chloro-4-morpholinobenzaldehyde] | IC50 (Human ALDH3A1 [2]): 64.1 ± 6.7 µM
